Target: T1, M2 receptor (Homo sapiens, UniProt P08172, DEL233-374)
T1 construct: FLAG (N); expressed in transfected cells
T1 sequence (P08172 with tags, fused parts or gaps DEL233-374): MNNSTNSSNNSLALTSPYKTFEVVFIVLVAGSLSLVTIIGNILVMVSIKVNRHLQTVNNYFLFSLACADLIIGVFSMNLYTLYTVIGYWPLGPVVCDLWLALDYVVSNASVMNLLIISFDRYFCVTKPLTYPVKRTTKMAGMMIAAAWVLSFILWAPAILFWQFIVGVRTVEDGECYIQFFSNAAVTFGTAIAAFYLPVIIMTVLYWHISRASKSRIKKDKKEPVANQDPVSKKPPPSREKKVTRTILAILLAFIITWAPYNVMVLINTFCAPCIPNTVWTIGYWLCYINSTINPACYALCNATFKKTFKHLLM
Assay: Assay of the invention: M2-LgBiT fusion and Nb9-8-SmBiT fusion
Format: cell-based

Cc1c(Cl)c(OCC(=O)N2CCN(C)CC2)nc2sc(C(=O)NC3CC3)c(N)c12 [LY2119620]
agonistic effect on the M2 receptor (LY2119620 itself, data not shown): some agonistic effect
effect on the dose-response curve of iperoxo (iperoxo DRC with and without LY2119620): effect as a positive allosteric modulator

Source: patent publication US20220244254A1, “Screening Methods and Assays for Use with Transmembrane Proteins, in Particular with GPCRs” (CONFO THERAPEUTICS N.V., priority 2019, published 2022)
